Assay type in all cases: biochemical
The target in one assay is rat nNOS (Rattus norvegicus, UniProt P29476). Put plainly: NOS inhibition assay, rat nNOS. The settings on record: for selectivity n/e: rat nNOS over bovine eNOS; for selectivity n/i: rat nNOS over murine iNOS.
The next assay deals with bovine eNOS (Bos taurus, UniProt P29473). The experiment in a line: NOS inhibition assay, bovine eNOS. The settings on record: 2a vs 1.
Another assay addresses human nNOS (Homo sapiens, UniProt P29475). Put plainly: NOS inhibition assay, human nNOS. The settings on record: human nNOS vs rat nNOS.

`Nc1cccc(C[C@@H]2CNC[C@@H]2OCCNCCc2cccc(F)c2)n1` [Compound 2a]: the “drop of selectivity for rat nNOS over bovine eNOS compared to 1” value at rat nNOS (2a vs 1) was found to be 2.3 fold. On rat nNOS (2a vs 1, removal of 4-methyl group), the “impaired potency for rat nNOS compared to 1” value was determined as 7 fold. In addition, at rat nNOS, the selectivity n/e is on record as 1,200 and the selectivity n/i came out at 200. On bovine eNOS, the “difference in eNOS potency compared to 1” value stood at 3 fold. Also, the “drop of selectivity (Ki-human/Ki-rat) compared to 1” value on human nNOS is on record as 1.2 fold.

`Nc1cccc(C[C@H]2CNC[C@H]2OCCNCCc2cccc(F)c2)n1` [Compound 2b]: the “lower potency for rat nNOS compared to 2a” value on rat nNOS (2b vs 2a) is on record as 4 fold. At rat nNOS, the selectivity n/e was determined as 270 and the selectivity n/i came out at 60.

As to `N=C1CCCC(C[C@@H]2CNC[C@@H]2OCCNCCc2cccc(F)c2)N1` (stereo partly drawn) [Compound 3], at rat nNOS, the selectivity n/e is listed as 530 and the selectivity n/i stood at 200. For the same compound, the “drop of selectivity (Ki-human/Ki-rat) compared to 1” value at human nNOS is on record as 1.6 fold.

Values taken from article PMC2952696 (Bioorganic & medicinal chemistry letters, 2010).
